From US12157730B2, “Heteroaryl derivative, method for producing same, and pharmaceutical composition comprising same as effective component” (VORONOI INC., priority 2019, dated 2024)

Target: T1, Ba/F3 cell EGFR Exon20 ins NPH (Homo sapiens, UniProt P00533, INS773NPH)
T1 construct: expressed in transfected cells; host or cells: Ba/F3
Assay: Ba/F3 cell proliferation suppression, EGFR Exon20 ins NPH
Format: cell-based
Settings: GI50 class; Ba/F3 cell line with NPH inserted at Exon20 of EGFR; 72 hours
How it was run: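 Growth suppression determined as GI50 following 72 h exposure across 12 concentrations up to 50 um, with viability by luminescent ATP assay (CellTiter-Glo).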

C=CC(=O)Nc1cc(Nc2cc(N3OCC[C@@H]3Cc3ccc(C(F)(F)F)cc3)ncn2)c(OC)cc1N1CCC(N2CCN(C3CC3)CC2)CC1 [compound 1050, N-(2-(4-(4-cyclopropylpiperazine-1-yl)piperidine-1-yl)-4-methoxy-5-((6-((S)-3-(4-(trifluoromethyl)benzyl)isoxazolidine-2-yl)pyrimidine-4-yl)amino)phenyl) acrylamide]
Ba/F3 (NPH) Activity: B (50 nM ≤ GI50 < 500 nM)

C=CC(=O)Nc1cc(Nc2cc(N3OCC[C@@H]3Cc3cccnc3)ncn2)c(OC)cc1N1CCC(N2C[C@H]3C[C@@H]2CO3)CC1 [compound 987, N-(2-(4-((1R,4R)-2-oxa-5-azabicyclo [2.2.1]heptane-5-yl)piperidine-1-yl)-4-methoxy-5-((6-((S)-3-(pyridine-3-ylmethyl)isoxazolidine-2-yl)pyrimidine-4-yl)amino)phenyl)acrylamide]
Ba/F3 (NPH) Activity: C (500 nM ≤ GI50 < 5000 nM)

C=CC(=O)Nc1cc(Nc2cc(N3OCC[C@@H]3c3ccc(F)c(F)c3F)ncn2)c(OC)cc1N1CCC(N2C[C@@H]3C[C@H]2CO3)CC1 [compound 574, N-(2-(4-((1S,4S)-2-oxa-5-azabicyclo [2.2.1]heptane-5-yl)piperidine-1-yl)-4-methoxy-5-((6-((R)-3-(2,3,4-trifluorophenyl)isoxazolidine-2-yl)pyrimidine-4-yl)amino)phenyl)acrylamide]
Ba/F3 (NPH) Activity: A (GI50 < 50 nM)

C=CC(=O)Nc1cc(Nc2cc(N3OCC[C@@H]3c3ccc(F)cc3F)ncn2)c(OC)cc1N1CCN(C(C)=O)CC1 [compound 343]
Ba/F3 (NPH) Activity: A (GI50 < 50 nM)

C=CC(=O)Nc1cc(Nc2cc(N3OCC[C@@H]3Cc3ccccc3)ncn2)c(OC)cc1N1CCN(C2CC2)CC1 [compound 952, N-(5-((6-((S)-3-benzylisoxazolidine-2-yl)pyrimidine-4-yl)amino)-2-(4-cyclopropylpiperazine-1-yl)-4-methoxyphenyl) acrylamide]
Ba/F3 (NPH) Activity: A (GI50 < 50 nM)

C=CC(=O)Nc1cc(Nc2cc(N3OCC[C@@H]3c3cccc(F)c3Cl)ncn2)c(OC)cc1N1CCC(N2CCN(C3CC3)C[C@@H]2C)CC1 [Example 144, N-(5-((6-((R)-3-(2-chloro-3-fluorophenyl)isoxazolidine-2-yl)pyrimidine-4-yl)amino)-2-(4-((S)-4-cyclopropyl-2-methylpiperazine-1-yl)piperidine-1-yl)-4-methoxyphenyl) acrylamide]
Ba/F3 (NPH) Activity: A (GI50 < 50 nM)

C=CC(=O)Nc1cc(Nc2cc(N3OCC[C@@H]3c3cccc(C#N)c3)ncn2)c(OC)cc1N1CCN(C2COC2)CC1 [compound 391, N-(5-((6-((R)-3-(3-cyanophenyl)isoxazolidine-2-yl)pyrimidine-4-yl)amino)-4-methoxy-2-(4-(oxetane-3-yl)piperazine-1-yl)phenyl) acrylamide]
Ba/F3 (NPH) Activity: B (50 nM ≤ GI50 < 500 nM)

C=CC(=O)Nc1cc(Nc2cc(N3OCC[C@@H]3c3ccc(F)c(Cl)c3F)ncn2)c(OC)cc1N1CCC(N2CCN(C(C)=O)CC2)CC1 [compound 636, N-(2-(4-(4-acetylpiperazine-1-yl)piperidine-1-yl)-5-((6-((R)-3-(3-chloro-2,4-difluorophenyl)isoxazolidine-2-yl)pyrimidine-4-yl)amino)-4-methoxyphenyl) acrylamide]
Ba/F3 (NPH) Activity: A (GI50 < 50 nM)

C=CC(=O)Nc1cc(Nc2cc(N3OCC[C@@H]3Cc3ccccc3)ncn2)c(OC)cc1N1CCN(CCN(C)C)CC1 [compound 961, N-(5-((6-((S)-3-benzylisoxazolidine-2-yl)pyrimidine-4-yl)amino)-2-(4-(2-(dimethylamino)ethyl)piperazine-1-yl)-4-methoxyphenyl) acrylamide]
Ba/F3 (NPH) Activity: A (GI50 < 50 nM)

C=CC(=O)Nc1cc(Nc2cc(N3OCC[C@@H]3c3cccc(C(F)(F)F)c3)ncn2)c(OC)cc1N1CC[C@@H](N(C)C)C1 [compound 505, N-(2-((R)-3-(dimethylamino)pyrolidine-1-yl)-4-methoxy-5-((6-((R)-3-(3-(trifluoromethyl)phenyl)isoxazolidine-2-yl)pyrimidine-4-yl)amino)phenyl)acrylamide]
Ba/F3 (NPH) Activity: A (GI50 < 50 nM)

C=CC(=O)Nc1cc(Nc2cc(N3OCC[C@@H]3Cc3ccccn3)ncn2)c(OC)cc1N1CCC(N2CCN(C3CC3)CC2)CC1 [compound 1059, N-(2-(4-(4-cyclopropylpiperazine-1-yl)piperidine-1-yl)-4-methoxy-5-((6-((S)-3-(pyridine-2-ylmethyl)isoxazolidine-2-yl)pyrimidine-4-yl)amino)phenyl)acrylamide]
Ba/F3 (NPH) Activity: A (GI50 < 50 nM)

C=CC(=O)Nc1cc(Nc2cc(N3OCC[C@@H]3c3ccc(F)c(Cl)c3)ncn2)c(OC)cc1N1CCC(N2CCOCC2)CC1 [compound 720, N-(5-((6-((R)-3-(3-chloro-4-fluorophenyl)isoxazolidine-2-yl)pyrimidine-4-yl)amino)-4-methoxy-2-(4-morpholinopiperidine-1-yl)phenyl)acrylamide]
Ba/F3 (NPH) Activity: A (GI50 < 50 nM)

C=CC(=O)Nc1cc(Nc2cc(N3OCC[C@@H]3Cc3cccc(N(C)C)c3)ncn2)c(OC)cc1N1CCC(N2C[C@H]3C[C@@H]2CO3)CC1 [compound 1047, N-(2-(4-((1R,4R)-2-oxa-5-azabicyclo [2.2.1]heptane-5-yl)piperidine-1-yl)-5-((6-((S)-3-(3-(dimethylamino)benzyl)isoxazolidine-2-yl)pyrimidine-4-yl)amino)-4-methoxyphenyl) acrylamide]
Ba/F3 (NPH) Activity: B (50 nM ≤ GI50 < 500 nM)

C=CC(=O)Nc1cc(Nc2cc(N3OCC[C@@H]3c3ccc(F)cc3F)ncn2)c(OC)cc1N1CCC(N2CCC(N3CCOCC3)CC2)CC1 [compound 426, N-(5-((6-((R)-3-(2,4-difluorophenyl)isoxazolidine-2-yl)pyrimidine-4-yl)amino)-4-methoxy-2-(4-morpholino-[1,4'-bipiperidine]-1'-yl)phenyl)acrylamide]
Ba/F3 (NPH) Activity: A (GI50 < 50 nM)

C=CC(=O)Nc1cc(Nc2cc(N3OCC[C@@H]3c3cccc(F)c3Cl)ncn2)c(OC)cc1N(C)CCN(C)C [compound 551, N-(5-((6-((R)-3-(2-chloro-3-fluorophenyl)isoxazolidine-2-yl)pyrimidine-4-yl)amino)-2-((2-(dimethylamino)ethyl)(methyl)amino)-4-methoxyphenyl) acrylamide]
Ba/F3 (NPH) Activity: A (GI50 < 50 nM)

C=CC(=O)Nc1cc(Nc2cc(N3OCC[C@@H]3Cc3ccccc3)ncn2)c(OC)cc1-n1ccnc1C [compound 960, N-(5-((6-((S)-3-benzylisoxazolidine-2-yl)pyrimidine-4-yl)amino)-4-methoxy-2-(2-methyl-1H-imidazole-1-yl)phenyl)acrylamide]
Ba/F3 (NPH) Activity: B (50 nM ≤ GI50 < 500 nM)

C#Cc1cccc([C@H]2CCON2c2cc(Nc3cc(NC(=O)C=C)c(N(C)CCN(C)C)cc3OC)ncn2)c1 [compound 616, N-(2-((2-(dimethylamino)ethyl) (methyl)amino)-5-((6-((R)-3-(3-ethynylphenyl)isoxazolidine-2-yl)pyrimidine-4-yl)amino)-4-methoxyphenyl) acrylamide]
Ba/F3 (NPH) Activity: A (GI50 < 50 nM)

C=CC(=O)Nc1cc(Nc2cc(N3OCC[C@@H]3c3cccc(Cl)c3Cl)ncn2)c(OC)cc1N1CCC(N2C[C@@H]3C[C@H]2CN3CC)CC1 [compound 607, N-(5-((6-((R)-3-(2,3-dichlorophenyl)isoxazolidine-2-yl)pyrimidine-4-yl)amino)-2-(4-((1S,4S)-5-ethyl-2,5-diazabicyclo[2.2.1]heptane-2-yl)piperidine-1-yl)-4-methoxyphenyl) acrylamide]
Ba/F3 (NPH) Activity: A (GI50 < 50 nM)
